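Values below derive from 48-hour exposures of cells grown in 96-well plates, with endpoints linearly interpolated between the two concentrations bracketing the appropriate inhibition level. Here, GI50 denotes the concentration required for 50% inhibition of growth.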 Active and inactive are the calls of the source. Rule as the data show it: active = GI50 up to about 1.1 µM and inactive = higher.
Legend:
Test in all cases: growth of human tumour cells (NCI), 48 h
[1] = system: HT-29
[2] = system: ACHN
[3] = system: RXF 393
[4] = system: DU-145
[5] = system: LOX IMVI
[6] = system: HOP-92
[7] = system: IGROV-1
[8] = system: SNB-75
[9] = system: UACC-62
[10] = system: NCI-H23
[11] = system: HCT-116
[12] = system: Malme-3M
[13] = system: UO-31
[14] = system: NCI-H460
[15] = system: SF-539
[16] = system: SR
[17] = system: RPMI-8226
[18] = system: PC-3
[19] = system: OVCAR-8
[20] = system: HOP-18
[21] = system: COLO 205
[22] = system: LXFL 529
[23] = system: KM-20L2
[24] = system: HOP-62
[25] = system: M14
[26] = system: OVCAR-3
[27] = system: MDA-MB-231
[28] = system: MOLT-4
[29] = system: XF498
[30] = system: DMS-273
[31] = system: MDA-MB-435
[32] = system: Hs-578T
[33] = system: SNB-19
[34] = system: SK-MEL-2
[35] = system: A498
[36] = system: UACC-257
[37] = system: SN12C
[38] = system: NCI-H522
[39] = system: SK-OV-3
[40] = system: M19-MEL
[41] = system: MDA-N
[42] = system: DMS-114
[43] = system: T47D
[44] = system: OVCAR-4
[45] = system: U-251
[46] = system: NCI-H226
[47] = system: SF-268
[48] = system: HL-60
[49] = system: CAKI-1
[50] = system: NCI/ADR-RES
[51] = system: HCT-15
[52] = system: KM12
[53] = system: SW-620
[54] = system: SK-MEL-5
[55] = system: K562
[56] = system: MCF7
[57] = system: HCC 2998
[58] = system: CCRF-CEM
[59] = system: TK-10
[60] = system: DLD-1
[61] = system: A549
[62] = system: OVCAR-5
[63] = system: EKVX
[64] = system: SF-295
[65] = system: SNB-78
[66] = system: 786-0
[67] = system: SK-MEL-28

## CCCCOC(=O)N[C@H]1CCc2cc(OC)c(OC)c(OC)c2-c2ccc(SC)c(=O)cc21
[1]
  GI50: < 10 nM (active)
[2]
  GI50: < 11.4 nM (active)
[3]
  GI50: < 31 nM (active)
[4]
  GI50: < 10 nM (active)
[5]
  GI50: < 10 nM (active)
[6]
  GI50: < 10 nM (active)
[7]
  GI50: 10.1 nM (active)
[8]
  GI50: < 10.9 nM (active)
[9]
  GI50: < 10 nM (active)
[10]
  GI50: < 10 nM (active)
[11]
  GI50: < 10 nM (active)
[12]
  GI50: < 10 nM (active)
[13]
  GI50: < 23.1 nM (active)
[14]
  GI50: < 10 nM (active)
[15]
  GI50: < 10 nM (active)
[16]
  GI50: < 56.8 nM (active)
[17]
  GI50: < 10 nM (active)
[18]
  GI50: 12.7 nM (active)
[19]
  GI50: < 10 nM (active)
[20]
  GI50: 21400 nM (inactive)
[21]
  GI50: < 10 nM (active)
[22]
  GI50: < 10 nM (active)
[23]
  GI50: < 10 nM (active)
[24]
  GI50: < 10 nM (active)
[25]
  GI50: < 10 nM (active)
[26]
  GI50: < 10 nM (active)
[27]
  GI50: < 10 nM (active)
[28]
  GI50: < 10 nM (active)
[29]
  GI50: < 10 nM (active)
[30]
  GI50: < 10 nM (active)
[31]
  GI50: < 10 nM (active)
[32]
  GI50: < 10 nM (active)
[33]
  GI50: < 15.3 nM (active)
[34]
  GI50: < 10 nM (active)
[35]
  GI50: < 10 nM (active)
[36]
  GI50: < 28.6 nM (active)
[37]
  GI50: < 10 nM (active)
[38]
  GI50: < 10 nM (active)
[39]
  GI50: 30.3 nM (active)
[40]
  GI50: < 10 nM (active)
[41]
  GI50: < 10 nM (active)
[42]
  GI50: < 10 nM (active)
[43]
  GI50: 18100 nM (inactive)
[44]
  GI50: 2200 nM (inactive)
[45]
  GI50: < 10 nM (active)
[46]
  GI50: 93.1 nM (active)
[47]
  GI50: < 10 nM (active)
[48]
  GI50: 12.3 nM (active)
[49]
  GI50: < 10 nM (active)
[50]
  GI50: < 10 nM (active)
[51]
  GI50: < 10 nM
[52]
  GI50: < 10 nM (active)
[53]
  GI50: < 10 nM (active)
[54]
  GI50: < 10 nM (active)
[55]
  GI50: < 36.9 nM (active)
[56]
  GI50: < 10 nM (active)
[57]
  GI50: < 10 nM (active)
[58]
  GI50: < 10 nM (active)
[59]
  GI50: 198 nM (active)
[60]
  GI50: < 10 nM (active)
[61]
  GI50: < 10 nM (active)
[62]
  GI50: 147 nM (active)
[63]
  GI50: 16300 nM (inactive)
[64]
  GI50: < 10 nM (active)
[65]
  GI50: < 10 nM (active)
[66]
  GI50: < 10 nM (active)
[67]
  GI50: 752 nM (active)

Source: ChEMBL document CHEMBL1201862, “PubChem BioAssay data set” (2004)
